Values of other authors in patent US20110178015A1, “METHODS OF TREATMENT USING BIASED LIGANDS FOR RECEPTORS SUCH AS THE PTH RECEPTOR” (priority 2007, published 2011).

Test system: PTH1 receptor
Settings: cited from earlier work
[1] = Gardella 1996, Sneddon 2004, Bisello 2002

## (D-Trp12, Tyr34)-PTH(7-34) [PTH-βarr]
[1]
  PTH1 receptor-Gs coupling / cAMP production: inverse agonist
  arrestin-dependent sequestration / β-arrestin recruitment: promoting arrestin-dependent sequestration
In vitro, Gesty-Palmer 2006
  β-arrestin-dependent ERK1/2 activation: elicit β-arrestin-dependent ERK1/2 activation
